# Like-named read-outs stand apart in the source and are kept apart here.
# Legend:
# [1] = Caco-2 transport study (apical to basolateral); format: in vitro ADME, human; settings: human, Caco-2; apical to basolateral; read-out: Apparent permeation coefficient
# Procedure: (§1) Caco-2 cells are a human colon epithelial cancer cell line that expresses transporters, efflux proteins and phase II enzymes and can be used to correlate cell permeability with drug absorption. In addition to determining the apparent permeability coefficient, an estimation of C2E2 metabolism during transport can be obtained. The aim of these preliminary studies was to evaluate a range of C2E2 concentrations (25, 50 & 100 μM) in order to determine a linear concentration range in which further studies could be performed.
# (§2) Caco-2 cells (passage #39) were cultured in 75 cm^2T-flasks at 37° C. in a 5% CO2 constant humidity environment. The medium was replaced 3 times a week and the monolayers were sub-cultured to passage #41. When plating the cells 0.5 mL of a 120,000 cells/mL suspension was added to each apical (AP) compartment of the first and then 1.5 mL of cell culture medium was placed into the basolateral (BL) compartment of the Transwells®. Following 21-24 days on the Transwell® plates with media changes 2-3 times a week the Caco-2 transport studies were performed.
# (§3) Prior to the transport experiments the transport medium was warmed to 37° C. Transport medium consisted of Hank's Balanced Salt Solution (HBSS) (1×) with calcium and magnesium 500 mL with the addition of 1M HEPES buffer (5 mL) and 1.25M D-Glucose solution in HBSS (10 mL). The cell culture medium was removed from the Transwells® to be used for the experiment and each well was washed twice with warm transport medium. The Transwells® were then pre-incubated for 30 min with transport medium. Finally, the trans-epithelial resistance (TEER) values for each Transwell® were measured using a voltohmmmeter and chopstick electrode. The TEER values should be in the range of 300-750 and should vary as little as possible. Dosing solutions were prepared in warm (37° C.) transport medium. […] The concentration of C2E2 was then determined by LC-MS/MS. The concentration of the dosing solutions was also measured to determine the concentration in the donor compartment at time zero. […]
# Caco-2 cells = assay: Caco-2 transport study (apical to basolateral); format: in vitro ADME, human
# Procedure: as §1, §2, §3
# [2] = 10-day repeat-dose toxicity and toxicokinetics study in dogs; format: in vivo, Beagle dog; settings: for AUC(0-t) / Cmax: plasma, po, 200 mg/kg/day, after 10 days of dosing; for AUC(0-t): read-out: C2E2 AUC0-24; for Cmax: read-out: Mean C2E2 Cmax
# Procedure: An exploratory study was conducted to evaluate the toxicity and to determine the toxicokinetics of the test article, C2E2, when administered to dogs via 10 daily oral gavage doses. Groups of 2 Beagle dogs/sex were administered C2E2 via oral gavage at dose levels of 0, 60, 200, 400, or 600 mg/kg. The vehicle was reverse osmosis water and the dose volume was 8 mL/kg. Assessment of toxicity was based on mortality, clinical observations, body weight, food consumption, clinical pathology, gross pathology, organ weights, histopathology of selected tissues, and plasma essential trace elements analysis. Blood samples were collected on Days 1 and 10 for toxicokinetic evaluations of C2E2, C2E1, DTPA and C2E3. C2E3 is believed to be an impurity in the C2E2 lot used.
# [3] = test system: Salmonella typhimurium tester strains TA98, TA100, TA1535, and TA1537; assay: Bacterial Reverse Mutation Assay (Salmonella); format: cell-based
# Procedure: The objective of this study was to evaluate C2E2 for its ability to induce reverse mutations at the histidine locus in Salmonella typhimurium tester strains TA98, TA100, TA1535, and TA1537, and at the tryptophan locus of Escherichia coli (E. coli) strain WP2uvrA in the presence or absence of an exogenous mammalian metabolic activation system (S9).
# C2E2 was evaluated in an initial mutagenicity assay in all five tester strains at dose levels of 5.00, 16.0, 50.0, 160, 500, 1600, and 5000 μg/plate with and without S9. C2E2 was from Lot 050 obtained using Method 2. C2E2 was prepared in Cell Culture Grade Water vehicle and formed a transparent colorless solution. […] The reductions in the numbers of revertant colonies and the enhanced background lawn growth are indicative of C2E2 treatment-related toxicity. With exception to the enhanced background lawn in TA1537 without S9, all other background lawns in all strains, with and without S9, were normal indicating there was appropriate bacterial growth during treatment to express a mutagenic event. There were no relevant increases in the numbers of revertant colonies observed at any dose level with any strain in the absence or presence of S9 metabolic activation.
# [4] = Protonation constants by potentiometric titration; format: physicochemical; settings: 5 mM ligand in 0.15 M KCl
# Procedure: The protonation constants for C2E2 were determined by preparing a 5 mM solution of free ligand in 0.15 M KCl. The constants were calculated from three replicates, with each experiment consisting of a titration with acid, followed by a titration with base. After each addition of titrant, a 30 second equilibration time passed before pH measurement with a Seven Easy pH meter and (Ag/AgCl reference) glass electrode (Metler Tolledo). At the end of the titrations, the presence of C2E2 was confirmed by HPLC-CAD. Evaluation of the titration curve for C2E2 (FIG. 31) identified 6 pKa values that correspond with the three tertiary amines and three carboxylic acids. The values were determined by refinement using […] software. The pKa values determined for C2E2 are consistent with DTPA analogues previously investigated for use as MRI contrast agents with two carboxylic acids are functionalized such as DTPA-BMA and DTPA-BBA (Rizkalla, E. N., et al., Inorganic Chemistry, 32, 582-586, (1993) and Geraldes C. F., et al., Journal of the Chemical Society-Dalton Transactions, 327-335 (1995)).
smiles,measurement,setting,value
"CCOC(=O)CN(CCN(CCN(CC(=O)O)CC(=O)OCC)CC(=O)O)CC(=O)O [C2E2, 6,9-bis(carboxymethyl)-3-(2-ethoxy-2-oxoethyl)-11-oxo-12-oxa-3,6,9-triazatetradecan-1-oic acid]",Papp A→B at 120 min,[1],48.8 nm/s
same,Percentage of dose detected in the receiving compartment,"Caco-2 cells; apical to basolateral, 25, 50 & 100 μM, two hours",18-22%
same,Predicted absorption in humans,Caco-2 cells; from Caco-2 Papp using data of Shiyin Yee,20-70%
same,Dose proportionality of mean Cmax and AUC0-24,[2]; 60 to 600 mg/kg/day,not consistently dose proportional
same,Maximum-tolerated dose (statement),"[2]; 400 and 600 mg/kg/day, early sacrifices",exceeded the maximum-tolerated dose
same,NOAEL at 10 days,"[2]; both sexes, Beagle, dog, in vivo, dogs, oral gavage, 10 days, read-out: No observed adverse effect level (NOAEL)",200 mg/kg/day
same,Accumulation after multiple dosing,"[2]; dogs, 10 daily doses",No accumulation
same,Sex differences in C2E2 mean Cmax and AUC0-24,"[2]; dogs, 60-600 mg/kg/day",less than 2 fold
same,Dose at which liver and kidney were target organs of toxicity,"[2]; dogs, 10 days",≥ 400 mg/kg/day
same,Dose with clinical chemistry changes consistent with hepatotoxicity,"[2]; dogs, 10 days",≥ 400 mg/kg/day
same,"Dose with test article related clinical observations (vomitus/emesis, fecal abnormalities)","[2]; dogs, 10 days",≥ 200 mg/kg/day
same,AUC(0-t),"[2]; female, Beagle, dog, females",184 µg·h/mL
same,Cmax,"[2]; female, Beagle, dog, females",72 µg/mL
same,Dose with dose-dependent body weight loss,[2]; females,≥ 400 mg/kg/day
same,AUC(0-t),"[2]; male, Beagle, dog, males",151 µg·h/mL
same,Cmax,"[2]; male, Beagle, dog, males",59.5 µg/mL
same,Dose with dose-dependent body weight loss,[2]; males,≥ 200 mg/kg/day
same,Dose with hepatocyte degeneration/necrosis and mixed cell inflammation,"[2]; males, terminal sacrifice",≥ 200 mg/kg/day
same,Mortality / early sacrifice,"[2]; one male 600 mg/kg/day, one male 400 mg/kg/day",Two animals were sacrificed early due to moribund condition
same,"Essential trace elements in plasma (Cr, Co, Cu, Fe, Mg, Mn, Mo, Se, Zn)",[2]; repeated doses up to 600 mg/kg/day for 10 days,No test article-related depletion of essential trace elements in plasma
same,Dose level with reductions in mean numbers of revertant colonies (toxicity),"[3]; TA100, TA1535, TA1537, without S9",5000 μg/plate
same,Dose level with reductions in mean numbers of revertant colonies (toxicity),"[3]; TA1535, TA1537, with S9",≥ 500 μg/plate
same,Mutagenicity (reverse mutations at the histidine locus),"[3]; up to 5000 μg/plate, with and without S9",negative
same,PKa2,[4],4.68 ± 0.02
same,pKa1,[4],9.40
same,pKa3,[4],3.52 ± 0.03
same,pKa4,[4],1.87 ± 0.05
same,pKa5,[4],1.76
same,pKa6,[4],1.45
